Source: article PMC9315496, “A Comparison of the Photophysical, Electrochemical and Cytotoxic Properties of meso-(2-, 3- and 4-Pyridyl)-BODIPYs and Their Derivatives” (Sensors (Basel, Switzerland), 2022)
Like-named read-outs stand apart in the source and are kept apart here. Marks after values point to notes of the source that are not given here.

Tests used:
[1] = UV-vis absorption and emission spectroscopy, relative fluorescence quantum yields; assay type: physicochemical; details: for λabs / λem: room temperature; for Φf (relative fluorescence quantum yield): standard Ru(bpy)Cl2.6H2O (Φf = 0.028) in H2O, λexc = 436 nm
Method: UV−vis absorption spectra were collected on a Varian Cary 50 Bio spectrophotometer. Emission spectra were obtained on a PerkinElmer LS55 spectrophotometer, at room temperature. Spectrophotometric grade solvents and quartz cuvettes (1 cm path length) were used. Relative fluorescence quantum yields (Φf) were calculated using rhodamine 6G (Φf = 0.86 in methanol) as reference for the neutral BODIPYs and Ru(bpy)Cl2.6H2O (Φf = 0.028 in water) as the standard for the cationic BODIPYs using the following equation: Φx = Φst × Gradx/Gradst × (ηx/ηst)^2, where the ΦX and ΦST are the quantum yields of the sample and standard, GradX and GradST are the gradients from the plot of integrated fluorescence intensity vs. absorbance, and η represents the refractive index of the solvent (x is for the sample and st for the standard).

Cyclic voltammetry = assay type: physicochemical
Source text: Cyclic voltammograms were collected on a Biologic SP-300 potentiostat using a three-electrode setup with a platinum working electrode (2 mm diameter, CH Instruments), platinum counter electrode (2 mm diameter, CH Instruments), and a silver wire pseudo reference-electrode stored in 0.25 M NBu4PF6 in anhydrous acetonitrile and separated from the electrochemical cell by a glass frit. The electrochemical cell was composed of a borosilicate glass scintillation vial with a custom-machined cap. Working electrodes were polished and then pre-treated by cycling between upper and lower boundaries of the electrochemical window for the experiment in a solution containing only the electrolyte. Measurements were taken in a solution of 0.25 M recrystallized NBu4PF6 in dried and degassed anhydrous acetonitrile. BODIPYs were added to 5 mL of electrolyte solution to give a concentration of 1 mM. Each solution also contained 1 mM ferrocene as an internal reference. Solutions were sparged with N2 before each measurement.

HEp2 cells [2] = test: Dark cytotoxicity, Cell Titer Blue; assay type: cell-based; details: Homo sapiens, HEp-2, 24 h incubation, read-out: Dark Toxicity (IC50)
Method: (§1) Human carcinoma HEp2 cells were obtained from ATCC and maintained in a 75 cm^2 flask (Chemglass) with 1× MEM (Eagle’s minimal essential medium) containing 10% FBS (fetal bovine serum) and 1% antibiotic (penicillin–streptomycin) in a humidified, 5% CO2 incubator at 37 °C. Stock solutions with a concentration of 32 mM in DMSO were prepared for each BODIPY. The stock solution was diluted to the final working concentrations with culture medium. The HEp2 cells were plated at 7500–10,000 cells per well in a Costar 96-well plate and allowed to grow for 24 h. The BODIPY stock solution was diluted to a 200 μM working solution and two-fold serial dilutions were prepared with final concentrations of 200, 100, 50, 25, 12.5, 6.25, and 0 μM. Each BODIPY was incubated for 24 h at 37 °C under 5% CO2. For the dark cytotoxicity experiments, after incubation, excess BODIPY was removed by washing the cells three times with 1× PBS (phosphate-buffered saline) and replacing with media containing 20% Cell Titer Blue (Promega, Madison, WI, USA). The cells were then incubated for additional 24 h at 37 °C under 5% CO2 and the cell toxicity was determined by fluorescence intensity at ex 570/em 615 nm using a FluoStar Optima microplate reader (BMG Labtech, Cary, NC, USA).

HEp2 cells [3] = test: Phototoxicity (1.5 J/cm^2), Cell Titer Blue; assay type: cell-based; details: Homo sapiens, HEp-2, light or radiation study, light dose 1.5 J/cm^2
Method: as §1
For the phototoxicity experiments, after incubation the cells were exposed to a light dose of ~1.5 J/cm^2 generated using a 600 W Quartz Tungsten Halogen lamp (Newport Corporation, Irvine, CA, USA). The cells were exposed for 20 min while the 96-well plate rested on an EchoTherm chilling plate (Torrey Pines Scientific, Carlsbad, CA, USA) set to 5 °C. Following light exposure, the loading media was removed and media containing 20% Cell Titer Blue was added. After incubation for 24 h at 37 °C under 5% CO2, the cell viability was determined as described above.

[4] = cited from earlier work
[5] = vs. Fc^+/Fc, 100 mV/s, acetonitrile, 0.25 M NBu4PF6

**Q.** With `CC1=C(Cl)C(C)=[N+]2C1=C(c1ccc[n+](C)c1)c1c(C)c(Cl)c(C)n1[B-]2(F)F` [3catPyCl2, 2,6-Dichlo-8-(N-methyl-3-pyridyl)-1,3,5,7-tetramethyl-BODIPY] as the compound, how does the “Stokes Shift” value ([1]; CH3CN) read?
**A.** 20 nm

**Q.** What about the “ε (molar extinction coefficient)” value ([1]; CH3CN) of the same compound?
**A.** 43,160 M^−1 cm ^−1

**Q.** And the λabs ([1]; CH3CN)?
**A.** 540 nm

**Q.** And the λem ([1]; CH3CN)?
**A.** 560 nm

**Q.** What about the “Φf (relative fluorescence quantum yield)” value ([1]; CH3CN) of the same compound?
**A.** 0.23 ^b

**Q.** And the “Stokes Shift” value ([1]; H2O)?
**A.** 24 nm

**Q.** And the “ε (molar extinction coefficient)” value ([1]; H2O)?
**A.** 35,180 M^−1 cm ^−1

**Q.** What about the λabs ([1]; H2O) of the same compound?
**A.** 540 nm

**Q.** What about the λem ([1]; H2O) of the same compound?
**A.** 564 nm

**Q.** And the “Φf (relative fluorescence quantum yield)” value ([1]; H2O)?
**A.** 0.47

**Q.** What about the “Φf (relative fluorescence quantum yield)” value ([1]; H2O, listed as 3catPyCl2 (I^−)) of the same compound?
**A.** 0.47 ^b

**Q.** What about the “fluorescence enhancement relative to the non-chlorinated pyridinium BODIPY” value ([1]; acetonitrile) of the same compound?
**A.** 38 fold

**Q.** And the “fluorescence enhancement relative to the non-chlorinated pyridinium BODIPY” value ([1]; water)?
**A.** 100 fold

**Q.** What about the “first reduction wave shift positive compared with the unchlorinated BODIPY” value (Cyclic voltammetry) of the same compound?
**A.** 240 mV

**Q.** And the “second reduction wave shift positive compared with the unchlorinated BODIPY” value (Cyclic voltammetry)?
**A.** 120 mV

**Q.** And the “anodic peak shift positive compared with the corresponding unchlorinated BODIPY” value (Cyclic voltammetry; 100 mV/s)?
**A.** 160 mV

**Q.** What about the “E1/2ox (oxidation peak potential only, irreversible wave)” value (Cyclic voltammetry; [5]) of the same compound?
**A.** +1.10 ^c V

**Q.** And the “E1/2red, first one-electron reduction” value (Cyclic voltammetry; [5])?
**A.** −1.02 V

**Q.** What about the “E1/2red, second one-electron reduction” value (Cyclic voltammetry; [5]) of the same compound?
**A.** −1.42 V

**Q.** And the IC50 (HEp2 cells [2])?
**A.** 120 µM

**Q.** And the IC50 (HEp2 cells [3])?
**A.** > 100 µM

**Q.** Which results are given for `CC1=CC(C)=[N+]2C1=C(c1cc[n+](C)cc1)c1c(C)cc(C)n1[B-]2(F)F` [4catPy]?
**A.** bathochromic shift of maximum absorption wavelength upon methylation ([1]; acetonitrile, experimental): 8 nm; E1/2red, two-electron reduction to doubly reduced state (Cyclic voltammetry; [5]): −1.06 ^e V; E1/2ox (Cyclic voltammetry; vs. Fc^+/Fc, 100 mV/s, acetonitrile, 0.25 M NBu4PF6, PF6^− counterion): +0.89 V; IC50 (HEp2 cells [2]): > 200 µM; IC50 (HEp2 cells [3]): > 100 µM; Stokes Shift ([4]; CH3CN): 87 nm; Φf (fluorescence quantum yield) ([4]; CH3CN): 0.019; ε (molar extinction coefficient) ([4]; CH3CN): 26,000 M^−1 cm ^−1; λabs ([4]; CH3CN): 509 nm; λem ([4]; CH3CN): 596 nm; Stokes Shift ([4]; H2O): 91 nm; Φf (fluorescence quantum yield) ([4]; H2O): 0.004; ε (molar extinction coefficient) ([4]; H2O): 31,600 M^−1 cm ^−1; λabs ([4]; H2O): 509 nm; λem ([4]; H2O): 600 nm
